{"source": "patent US8048455B2", "about": "“Treatment of cancer and inflammatory disorder” (Academia Sinica, priority 2006, dated 2011)", "key": {"[1]": {"system": "human COX-2 promoter", "test": "COX-2 promoter-driven luciferase reporter assay in TPA-treated B16 melanoma cells", "assay_type": "cell-based, murine", "settings": "for Suppression of full-length COX-2 promoter activity vs TPA only: TPA 50 ng/mL 6 h", "excerpt": "A double-mutated COX-2 promoter containing mutations on both NF-κB sites was also constructed (FIG. 2). PPGL-3-Basic vector was used as a negative control in luciferase assays. COX-2 reporter activity in arbitrary units (AU) was normalized to that for the Renilla luciferase reporter.\nMurine melanoma B-16 cells co-transfected with the full-length pCOX-2-Luc and internal control plasmid pRL-TK-Luc plasmid constructs were stimulated without (control) or with TPA, in the absence or presence of the indicated concentrations of CREa8. An amount of 10 μg of total protein lysate was subjected to dual luciferase reporter assay. The induction fold of COX promoter activity by TPA treatment only is presented as 100%. The statistical analyses between […] and CREa8, aspirin, or indomethacin (Indo.) treatment were performed using Student's t-test.\nB-16 cells were co-transfected with the full-length pCOX-2-Luc and internal control Renilla pRL-TK-Luc plasmid constructs with the LIPOFECTAMINE reagent (Invitrogen). The cells were then stimulated with vehicle (0.001% DMSO) or with 50 ng/mL TPA, in the absence or presence of dLGG for 6 hours. Ten μg of total protein lysate prepared with Passive Lysis Buffer (Promega) was subjected to dual luciferase reporter assay. The induction fold of COX-2 promoter activity by TPA treatment only is presented as 100%.\nThe contribution of specific cis-acting element binding sites on the transcription of COX-2 was examined. Data were obtained from 2 to 3 experiments with 3 to 6 replicates and expressed as mean±SD. Two-way ANOVA was used to analyze significance of differences."}, "[2]": {"system": "iNOS mRNA", "test": "iNOS mRNA expression (RT-PCR) in LPS-stimulated RAW264.7 cells", "assay_type": "cell-based, murine", "settings": "LPS 1 μg/mL 6 h", "experimental": "For each RT-PCR analysis, 2 μg of total RNA isolated with TRIZOL® Reagent was used to synthesize 1st-strand cDNA using […]™ II Reverse Transcriptase (Invitrogen). The iNOS and COX-2 genes were amplified and analyzed using specific oligonucleotide primers and PCR reactions by method described in Chiang et al. Br J Pharmacol 2005; 146:352-63).\nRAW264.7 cells were treated with various concentrations of dLGG for 1 hour, then incubated with LPS (1 μg/mL) for 6 hours. Total cellular RNA was subjected to RT-PCR, and final PCR product resolved by 1% agarose gel electrophoresis."}, "[3]": {"system": "COX-2 and nitrotyrosine-containing proteins", "test": "Immunohistochemical study of COX-2 and nitrotyrosine protein expression in mouse skin", "assay_type": "in vivo, Female ICR mice", "experimental": "Female ICR mice were topically treated on their shaven backs with vehicle (acetone), TPA, or SNP for 4 hours, or were treated with compound (dLGG, celecoxib, or PTIO) topically for 30 minutes before treating with TPA or SNP for 4 hours and finally killed by cervical dislocation. The formalin-fixed, paraffin-embedded skin tissues were stained according to Chiang et al. Br J Pharmacol 2005; 146:352-63.\nImmunohistochemical study was carried out to examine the ability of dLGG to inhibit TPA induction of COX-2 and nitration of proteins in vivo using immunohistochemical analysis in a mouse skin system. Dorsal skin of female ICR mice was treated topically with acetone (vehicle control) or TPA (10 nmol) for 4 hours or with various concentrations of dLGG or celecoxib for 30 minutes before TPA treatment for 4 hours. Immunohistograms were taken with an Olympus DP-70 camera on a Nikon ECLIPSE E800 microscope."}, "[4]": {"system": "B16 melanoma", "test": "In vivo inhibition of B16 melanoma growth in C57BL/6J mice", "settings": "mouse, in vivo, ip", "experimental": "The chemopreventive effect of the CREa8 subfraction was evaluated on tumor growth using the B16 melanoma C57BL/6J mouse system. Six-week-old animals (4 groups of mice, 5 in each group) were used in this experiment. Group 1 mice (Sham control) were intraperitoneally (i.p.) injected with 20 μL of DMSO every 2 days throughout the experimental period, except 100 μL PBS was injected on day 0. Group 4 mice (Tumor control) were pre-treated with DMSO every 2 days, starting from day—14, for 2 weeks, inoculated with B16 tumor cells (1×10^6 cells/100 μL PBS) subcutaneously (s.c.) on the abdominal area on day 0, and then injected with DMSO every 2 days until day 21. Group 2 mice were i.p. pre-treated with CREa8 (10 mg/kg body weight per dose) every 2 days, starting from day—14, for 2 weeks, s.c. inoculated with B16 tumor cells on day 0, and then continuously treated with CREa8 (i.p.) every 2 days until day 21. Group 3 mice were similarly pre-treated with DMSO every 2 days for 2 weeks, inoculated with B16 tumor cells on day 0, and then treated with cisplatin (i.p.) every 2 days until day 21. The test mice were monitored daily, and body weights and tumor size (average of 2 dimensions) recorded every 2 days. At the end of the experiment (day 21), tumors were excised and weighed.\nThe cancer prevention efficacy of the dLGG-rich fraction (CREa8) was examined in vivo in 4 groups of mice according to the method described above. Cisplatin, a cancer chemotherapeutic, was used as a reference control."}}, "data": [{"smiles": "CC/C=C\\C/C=C\\C/C=C\\CCCCCCCC(=O)OC[C@H](CO[C@@H]1O[C@H](CO)[C@H](O)[C@H](O)[C@H]1O)OC(=O)CCCCCCC/C=C\\C/C=C\\C/C=C\\CC", "note": "[dLGG, 1,2-di-O-α-linolenoyl-3-O-β-galactopyranosyl-sn-glycerol]", "values": [{"measurement": "Suppression of full-length COX-2 promoter activity vs TPA only", "setting": "[1]; 50 μg/mL, B16 cells", "result": 20, "unit": "%"}, {"measurement": "TPA-induced luciferase activity of −1334/−1 and −646/−1 promoter constructs (smaller)", "setting": "[1]; 100 μg/mL, B16 cells", "result": "65-68%"}, {"measurement": "Suppression of full-length COX-2 promoter activity vs TPA only", "setting": "[1]; 100 μg/mL, B16 cells", "result": 33, "unit": "%"}, {"measurement": "TPA-activated increases in luciferase activity, truncated promoter constructs", "setting": "[1]; 100 μg/mL, all transfected cells", "result": "able to fully inhibit"}, {"measurement": "TPA-induced COX-2 promoter activity in mutant promoter constructs (CRE, NF-IL6, NF-κB)", "setting": "[1]; B16 cells", "result": "able to suppress"}, {"measurement": "Reduction of iNOS mRNA expression", "setting": "[2]", "result": "approximately 56%"}, {"measurement": "Inhibitory effect on COX-2 protein expression and nitrotyrosine-containing proteins versus celecoxib 10 mg in 200 μL/site", "setting": "[3]; 1 mg in 200 μL/site (6.46 mM)", "result": "comparable to that of celecoxib"}, {"measurement": "TPA-induced increases of COX-2 and nitrotyrosine-containing proteins in epidermis", "setting": "[3]; topical 30 min before TPA 10 nmol 4 h", "result": "significantly attenuated"}, {"measurement": "Topical SNP-induced nitroprotein formation in mouse skin", "setting": "[3]; topical, SNP-treated", "result": "suppressed"}, {"measurement": "Mortality or body weight loss on i.p. administration", "setting": "[4]", "result": "without mortality or body weight loss"}]}]}
